Earlier results in US20090111747A1, “Anti-Diabetic or Anti-Hypertensive Dietary Supplement” (priority 2005, published 2009).
Ends that are not written are not given here.

Test system: mammalian α-glucosidase
Conditions: literature, Oki et al., 1999
In the case of Val-Trp, the “inhibitory effect on mammalian α-glucosidase” value is listed as “neither the hydrolysate nor the peptides had any significant inhibitory effect”. In the case of “Tyr-Tyr-Pro-Leu (YYPL; printed: Tyr-Tyr-Pro-Leu)”, the “inhibitory effect on mammalian α-glucosidase” value is given as “neither the hydrolysate nor the peptides had any significant inhibitory effect”.

Test system: rat intestinal α-glucosidase
Conditions: literature, Inoue et al., 2000
In the case of “Val-Phe-Ile-Lys-Ala (VFIKA; printed: Val-Phe-Ile-Lys-Ala)”, the “activity against rat intestinal α-glucosidase” value (from here on “activity”) is listed as “active against rat intestinal α-glucosidase”. For IISIGR, the “activity” value is given as “active against rat intestinal α-glucosidase”. In the case of “Ile-Ile-Ser-Ile-Gly (IISIG; printed: Ile-Ile-Ser-Ile-Gly)”, the “activity” value is listed as “active against rat intestinal α-glucosidase”. In the case of VFIKAA, the “activity” value is given as “active against rat intestinal α-glucosidase”. For VFIKAAA, the “activity” value is given as “active against rat intestinal α-glucosidase”.
